Experimental data taken from patent US20220168427A1 (Ranok Therapeutics (Hangzhou) Co. Ltd., priority 2019, published 2022).

Legend:
BRD4 (BD1+BD2) = molecular target: T1, BRD4 (BD1+BD2) (Homo sapiens, UniProt O60885); details: read-out: BRD4 Binding Potency
T1 construct: 1.8 μg/ml recombinant BRD4 (BD1+BD2 domains) protein

ERBB2 = assay: HSP90 Client Protein Degradation Flow Cytometry Assay, ERBB2 in BT-474 cells; assay type: cell-based, human
Description: (§1) MV4-11 cells were plated in a 24-well tissue culture plate at a density of 350,000 cells/450 μL/well and incubated in 37° C./5% CO2 for 1 hr. Cells were then treated with compounds at various concentrations and incubated in 37° C./5% CO2 for 24 hr. Cells were harvested, washed once, counted and 200 μL of 1% paraformaldehyde/PBS was added and incubated for 15 min at room temperature. 200 μL of 1×PBS/0.4% Triton X-100 was added and incubated for 15 min at 4° C. Cells were washed three times and resuspended in 50 μL of 1×PBS/0.2% Triton X-100. 2 μL/10^6 cells of anti-BRD4 antibody (ABCAM, #128874) was added and mixed by pipetting up and down. Cells were incubated for 30 min at room temperature in the dark, washed three times and resuspended in 50 μL of 1×PBS/0.2% Triton X-100. Goat anti-rabbit IgG H&L antibody (1:2000 dilution) was added and mixed by pipetting up and down and incubated for 30 min at room temperature in the dark. Finally, cells were washed three times and resuspended in 200 μL of PBS for flow cytometric analysis.
(§2) Similar flow cytometry experiments for ERBB2 in BT-474 human breast carcinoma cells (ATCC, #HTB-20) and IGF1R, EGFR and RAF1 in HEK-293 human embryonic kidney (ATCC, #CRL-1573) were performed using anti-ERBB2 (R&D, #FAB1129P), anti-IGF1R (Cell Signaling Technology, #9750), anti-EGFR (Cell Signaling Technology, #139690) and anti-RAF1 (ABCAM, #ab181115) antibodies.

IGF1R = assay: HSP90 Client Protein Degradation Flow Cytometry Assay, IGF1R in HEK-293 cells; assay type: cell-based, human
Description: as §1, §2

RAF1 = assay: HSP90 Client Protein Degradation Flow Cytometry Assay, RAF1 in HEK-293 cells; assay type: cell-based, human
Description: as §1, §2

MV4-11 cells = assay: MV4-11 Cell Cytotoxicity Assay; assay type: cell-based, human; details: 72 hr, CCK-8
Source text: % Inhibition=100−(D−B)/(S−B)*100%.
S: The absorbance of the maximum (cells with DMSO)
B: The absorbance of the minimum (medium with DMSO)

[1] = Pharmacokinetics and Tissue Distribution in the MV4-11 xenograft model; assay type: in vivo, mice; details: female, CB-17 SCID, mouse, 5 mg/kg single intravenous dose
Description: Pharmacokinetics and Tissue Distribution
15 female CB-17 SCID mice (treated in accordance with AAALAC animal welfare guidelines) were weighed and administered 5 mg/kg of compound 074 by a single intravenous injection. 0.10 mL of blood was collected from each mouse by submandibular vein and sodium heparin was added as an anticoagulant. Samples were collected before compound administration, and at 1 hr, 6 hr 24 hr and 48 hr time points after administration, with 3 mice sampled per time point. After collection, samples were placed on ice and the animals sacrificed to collect tumor and normal tissues. The method development and analysis of all samples were performed by the analytical laboratory at Shanghai Medicilon Inc. Intra-day accuracy evaluation of samples for quality control was carried out during sample analysis and a quality control accuracy of more than 66.7% of samples was required between to be 80-120%. Pharmacokinetic parameters were calculated using Phoenix WinNonlin7.0 software.

[2] = test system: HSP90 client proteins (ERBB2, IGF1R, EGFR, RAF1); assay: HSP90 Client Protein Degradation Flow Cytometry Assay, all clients together; assay type: cell-based, human; details: versus 59 nM for BRD4 degradation by western blotting in MV4-11 cells
Description: as §1
as §2, with “antibodies. […]” for “antibodies.”

## Cc1sc2c(c1C)C(c1ccc(Cl)cc1)=N[C@@H](CC(=O)N1CCC(CN3CCN(Cc4ccc(-n5c(O)nnc5-c5cc(C(C)C)c(O)cc5O)cc4)CC3)CC1)c1nnc(C)n1-2.Cl [Compound 74, (S)-2-(4-(4-chlorophenyl)-2,3,9-trimethyl-6H-thieno[3,2-f][1,2,4]triazolo[4,3-a][1,4]diazepin-6-yl)-1-(4-((4-(4-(3-(2,4-dihydroxy-5-isopropylphenyl)-5-hydroxy-4H-1,2,4-triazol-4-yl)benzyl)piperazin-1-yl)methyl)piperidin-1-yl)ethan-1-one hydrochloride]
BRD4 (BD1+BD2)
  IC50: 100 to 1000 nM
ERBB2
  IC50: 340 nM
IGF1R
  IC50: 1060 nM
RAF1
  IC50: 762 nM
MV4-11 cells
  IC50: < 100 nM
[1]; heart
  Cmax: 1640 ng/g
  Tmax: 1 h
  half-life: 3.7 h
[1]; liver
  Cmax: 5040 ng/g
  Tmax: 1 h
  half-life: 3.37 h
[1]; lung
  Cmax: 2030 ng/g
  Tmax: 1 h
  half-life: 6.94 h
[1]; plasma
  AUC(0-inf): 3020 ng·h/mL
  Cmax: 498 ng/mL
  Tmax: 1 h
  half-life: 3.92 h
[1]; tumor
  Cmax: 462 ng/g
  Tmax: 1 h
  half-life: 32.1 h
[2]
  IC50 for HSP90 clients higher than the IC50 value for BRD4 degradation: 6- to 18 fold
